Assay [1] is described as follows: Antioxidant activity assessed as hydroxyl radical scavenging activity at 100 uM incubated for 90 mins by spectrophotometric analysis. In kind it is functional.
Assay [2] in a line: Antioxidant activity assessed as superoxide anion radical scavenging activity at 100 uM incubated for 30 mins by spectrophotometric analysis. It counts as functional.
Assay [3] relates to Syrian golden hamster. In words: Antidyslipidemic activity in Triton-induced hyperlipidemic Syrian golden hamster model assessed as increase in post-heparin lipolytic activity at 50 mg/kg measured after 18 hrs. In kind it is functional, Mesocricetus auratus.
For assay [4], the system named is Syrian golden hamster. The experiment in a line: Antidyslipidemic activity in Triton-induced hyperlipidemic Syrian golden hamster model assessed as decrease in PL level at 50 mg/kg measured after 18 hrs. Also on record: scale not given: the % may be the effect or the level left. In kind it is functional, Mesocricetus auratus.
For assay [5], the system named is Syrian golden hamster. The experiment in a line: Antidyslipidemic activity in Triton-induced hyperlipidemic Syrian golden hamster model assessed as decrease in triglyceride level at 50 mg/kg measured after 18 hrs. In kind it is functional, Mesocricetus auratus. Also on record: scale not given: the % may be the effect or the level left.
Assay [6] relates to Syrian golden hamster. In words: Antidyslipidemic activity in Triton-induced hyperlipidemic Syrian golden hamster model assessed as decrease in total cholesterol level at 50 mg/kg measured after 18 hrs. In kind it is functional, Mesocricetus auratus. Also on record: scale not given: the % may be the effect or the level left.
In assay [7] the test system is Syrian golden hamster. The experiment in a line: Antidyslipidemic activity in Triton-induced hyperlipidemic Syrian golden hamster model assessed as increase in lecithin-cholesterol acyltransferase level at 50 mg/kg measured after 18 hrs. It counts as functional, Mesocricetus auratus.
Assay [8] deals with L6. The experiment in a line: Induction of glucose uptake in rat L6 cells expressing GLUT4 myc epitopes at 10 uM incubated for 24 hrs by scintillation counting method relative to control. It counts as functional.
The subject of assay [9] is Rattus norvegicus. In words: Antidiabetic activity in streptozotocin induced hyperglycemic Wistar rat model assessed as improvement in blood glucose level at 100 mg/kg,po measured upto 24 hrs relative to control. In kind it is functional.
Assay [10] deals with Rattus norvegicus. The experiment in a line: Antidiabetic activity in streptozotocin induced hyperglycemic Wistar rat model assessed as improvement in blood glucose level at 100 mg/kg,po measured upto 5 hrs relative to control. It counts as functional.
In assay [11] the test system is L6. In words: Induction of glucose uptake in rat L6 cells expressing GLUT4 myc epitopes at 5 uM incubated for 24 hrs by scintillation counting method relative to control. In kind it is functional.

Consider `COc1ccc(C(=O)c2cc3cc(/C=C/C(=O)c4c(O)ccc5c4OC(C)(CCC=C(C)C)C=C5)ccc3o2)cc1` (stereo not given), for which the Activity in assay [1] is 13; in [2], 11; in [3], 19%; in [4], 15%; in assay [5], 16%; in assay [6], 16%. Further, the Activity is 19% in assay [7] and 65.5% in [8].

As for `Cc1ccc(C)c(OCCCC(C)(C)C(=O)O)c1` [GEMFIBROZIL], the Activity in assay [3] is 41%; in assay [4], 34%; in [5] it was 36%; in assay [6], 38%; in assay [7], 42%.

In the case of `CC1(C)C=Cc2c(O)c(C(=O)/C=C/c3ccc4oc(C(=O)c5ccc(Cl)cc5)cc4c3)c3c(c2O1)C=CC(C)(C)O3`, the Activity in assay [1] worked out at 13; in assay [2] it was 21; in assay [3], 26%; in assay [4], 16%; in assay [5] it was 24%; in [6], 11%. Besides, the Activity in assay [7] was found to be 15%; in [8], 27%.

In the case of `CC(C)=CCCC1(C)C=Cc2c(ccc(C(=O)/C=C/c3ccc4oc(C(=O)c5ccccc5)cc4c3)c2O)O1` (stereo not given), the Activity in assay [1] was found to be 18; in [2], 18; in assay [3] it was 18%; in assay [4], 13%; in assay [5] it was 10%; in [6] it was 21%. The figures for the Activity in assay [7] and in assay [8] were 25% and 20.5%, respectively.

Regarding `OC[C@@H](O)[C@@H](O)[C@H](O)[C@H](O)CO`, the Activity in assay [1] came out at 39.

Regarding `Oc1ncnc2[nH]ncc12`, in assay [2], the Activity was determined as 37.

For the compound `CC(C)=CCCC1(C)C=Cc2ccc(O)c(C(=O)/C=C/c3ccc4oc(C(=O)c5ccccc5)cc4c3)c2O1` (stereo not given), the Activity in [1] turned out to be 13; in [2], 12; in [3], 13%; in [4] it was 6%; in [5], 8%; in [6], 17%. Besides, the results for the Activity in assay [7] and in assay [8] were 19% and 82.5%, respectively.

Take `CC1(C)C=Cc2c(O)c(C(=O)/C=C/c3ccc4oc(C(=O)c5ccccc5)cc4c3)c3c(c2O1)C=CC(C)(C)O3`: the Activity turned out to be 11 in assay [1]; 15 in assay [2]; 23% in assay [3]; 16% in [4]; 18% in [5]; 10% in assay [6]. Besides, the figures for the Activity in [7] and in [8] were 14% and 26.5%, respectively.

On to `CC(C)=CCCC1(C)C=Cc2ccc(O)c(C(=O)/C=C/c3ccc4occc4c3)c2O1` (stereo not given), for which the Activity worked out at 19 in assay [1]; 11 in [2]; 17% in assay [3]; 11% in [4]; 11% in assay [5]; 10% in assay [6]. The results for the Activity in assay [7] and in [8] were 14% and 108%, respectively.

In the case of `Cc1ccc(C(=O)c2cc3cc(/C=C/C(=O)c4c(O)ccc5c4OC(C)(C)C=C5)ccc3o2)cc1`, the Activity in assay [1] stood at 18; in [2], 13; in [3], 19%; in assay [4] it was 11%; in assay [5] it was 15%; in assay [6], 16%. Further, the Activity in [7] is listed as 20%; in [8] it was 72.9%.

In the case of `CC1(C)C=Cc2c(O)c(C(=O)/C=C/c3ccc4occc4c3)c3c(c2O1)C=CC(C)(C)O3`, the Activity turned out to be 12 in [1]; 16 in assay [2]; 22% in assay [3]; 13% in assay [4]; 19% in assay [5]; 11% in assay [6]. Further, the Activity in [9] is on record as 0.81%; in [10], 2.3%; in assay [7], 15%; in assay [8], 124%.

On to `COc1ccc(C(=O)c2cc3cc(/C=C/C(=O)c4c(O)c5c(c6c4OC(C)(C)C=C6)OC(C)(C)C=C5)ccc3o2)cc1`, for which the Activity was 17 in assay [1]; 12 in assay [2]; 21% in assay [3]; 13% in assay [4]; 15% in assay [5]; 9% in [6]. The Activity was 12% in [7] and 22% in [8].

For the compound `CC1(C)C=Cc2c(ccc(C(=O)/C=C/c3ccc4occc4c3)c2O)O1`, the Activity came out at 12 in assay [1]; 16 in assay [2]; 19% in [3]; 10% in assay [4]; 15% in assay [5]; 13% in assay [6]. Also, the results for the Activity in [7], in assay [11] and in [8] were 17%, 96% and 161.5%, respectively.

Take `CC(C)=CCCC1(C)C=Cc2ccc(O)c(C(=O)/C=C/c3ccc4oc(C(=O)c5ccc(C)cc5)cc4c3)c2O1` (stereo not given): the Activity amounted to 11 in assay [1]; 19 in assay [2]; 22% in [3]; 17% in [4]; 14% in [5]; 18% in [6]. For the same compound, the Activity is given as 22% in [7] and 47.4% in assay [8].

As for `Cc1ccc(C(=O)c2cc3cc(/C=C/C(=O)c4ccc5c(c4O)C=CC(C)(C)O5)ccc3o2)cc1`, the Activity in [1] was 10; in assay [2], 11; in [3] it was 18%; in assay [4], 11%; in assay [5] it was 13%; in [6], 13%. Further, the Activity stood at 17% in assay [7] and 53.1% in assay [8].

`CC(C)=CCCC1(C)C=Cc2c(ccc(C(=O)/C=C/c3ccc4occc4c3)c2O)O1` (stereo not given): the Activity in [1] came out at 16; in assay [2], 14; in assay [3] it was 21%; in assay [4], 19%; in assay [5] it was 11%; in [6], 16%. The Activity is 17.2% in assay [9]; 19.2% in assay [10]; 20% in assay [7]; 73.5% in assay [11]; 188% in [8].

Turning to `CC1(C)C=Cc2ccc(O)c(C(=O)/C=C/c3ccc4oc(C(=O)c5ccc(Cl)cc5)cc4c3)c2O1`, the Activity in assay [1] came to 12; in assay [2], 17; in assay [3] it was 11%; in assay [4], 6%; in [5] it was 7%; in assay [6], 8%. The results for the Activity in [7] and in [8] were 10% and 89%, respectively.

Turning to `CC(C)=CCCC1(C)C=Cc2ccc(O)c(C(=O)/C=C/c3ccc4oc(C(=O)c5ccc(Cl)cc5)cc4c3)c2O1` (stereo not given), the Activity in assay [1] came to 13; in assay [2] it was 12; in assay [3], 24%; in assay [4], 18%; in assay [5] it was 18%; in [6], 11%. The figures for the Activity in assay [7] and in assay [8] were 15% and 4%, respectively.

For `CN(C)C(=N)NC(=N)N` [METFORMIN], the Activity in assay [9] turned out to be 27.9%; in assay [10] it was 30.5%.

For `COc1ccc(C(=O)c2cc3cc(/C=C/C(=O)c4ccc5c(c4O)C=CC(C)(C)O5)ccc3o2)cc1`, the Activity turned out to be 11 in assay [1]; 16 in assay [2]; 21% in assay [3]; 13% in [4]; 16% in assay [5]; 15% in assay [6]. For the same compound, the Activity in [7] stood at 19%; in [8], 109.5%.

Consider `COc1ccc(C(=O)c2cc3cc(/C=C/C(=O)c4c(O)c5c(c6c4OC(C)(CCC=C(C)C)C=C6)OC(C)(CCC=C(C)C)C=C5)ccc3o2)cc1` (stereo not given), for which the Activity in assay [1] stood at 11; in assay [2], 9; in assay [3], 16%; in assay [4], 13%; in [5], 14%; in [6], 18%. Also, the Activity in [7] turned out to be 21%; in assay [8] it was 37%.

In the case of `COc1ccc(C(=O)c2cc3cc(/C=C/C(=O)c4ccc5c(c4O)C=CC(C)(CCC=C(C)C)O5)ccc3o2)cc1` (stereo not given), the Activity turned out to be 7 in assay [1]; 9 in assay [2]; 14% in assay [3]; 10% in assay [4]; 10% in assay [5]; 7% in assay [6]. In addition, the Activity worked out at 9% in assay [7] and 6% in assay [8].

In assay [8], `CN(CCOc1ccc(CC2SC(=O)NC2=O)cc1)c1ccccn1` (stereo not given) [ROSIGLITAZONE] gave an Activity of 96.5%.
